Results as given in patent EP2465840A1, “Terpene ether” (CABB GmbH, priority 2010, dated 2012).
“Also recorded” adds a separate entry of the source.

Assays:
Format in all cases: physicochemical
[1] = Visual evaluation of foam (foam appearance, bubble size); parameters: key to Blasengröße nach 1 min. / Blasengröße nach 5 min.: klein (1); mittel (2); mittel-groß (3); groß (4); sehr groß (5); key to Aussehen des Schaums nach 1 min. / Aussehen des Schaums nach 5 min.: verschwindend (1); locker (2); mittelkompakt (3); sehr kompakt (4); conditions: Reinigungsformulierung enthaltend Dinatriumlaurylsuccinat (wässrig)
Method: Die Qualität des Schaums wurde visuell nach der folgenden Methode festgestellt: 100 g der Lösung mit 0,5 % WAS wurden in einen 250 ml Glaszylinder mit Schraubverschluss und einem Innendurchmesser von 35 mm überführt. Der Zylinder wurde 10 mal gedreht und die Blasengröße und die Schaumkompaktheit wurden nach einer Minute nach dem Mischen und nach 5 Minuten ermittelt. Dabei erfolgte die Beurteilung auf der Grundlage der folgenden beschreibenden Parameter:
Aussehen des Schaums: verschwindend (1), locker (2), mittelkompakt (3), sehr kompakt (4)
Blasengröße: klein (1), mittel (2), mittel-groß (3), groß (4), sehr groß (5) Tabelle 4: […]

[2] = Appearance of cleaning formulation after 24 h
[3] = Brookfield viscosity (25°C) of cleaning formulation 24 h after addition of terpene ether
Method: Im Rahmen der vorliegenden Erfindung wird die Brookfield-Viskosität einer wässrigen Zusammensetzung vorzugsweise mittels einem RTV Brookfield-Viskosimeter bei 25°C ermittelt, besonders bevorzugt mit einer Spindel # 3 oder # 4.
Die in Tabelle 1 angegebene Reinigungsformulierung wurde untersucht. Tabelle 1: Reinigungsformulierung (WAS 15 %)
Zu dieser Formulierung wurden NP 1 oder NP 27 gegeben. Die gemessenen Brookfield-Viskositätswerte nach 24 Stunden werden in Tabelle 2 und 3 zusammengefasst. Tabelle 2: Brookfield-Viskosität (25°C)
Zu dieser Formulierung wurden NP 1 oder NP 27 sowie danach Natriumchlorid gegeben. Die gemessenen Brookfield-Viskositätswerte nach 24 Stunden werden in den folgenden Tabellen zusammengefasst. Tabelle 13: Brookfield-Viskosität (25°C)

[4] = Foam height and foam stability of formulation; conditions: Reinigungsformulierung enthaltend Dinatriumlaurylsuccinat (wässrig); for h1: Schaumhöhe 5 Minuten nach dem Mischen; for h1 / h0: Lösung mit 0,5 % WAS; for h0: Schaumhöhe eine Minute nach dem Mischen; for Stabilität: Schaumstabilität (h1/h0)*100
Method: Die Schaumhöhe der Formulierungen wurde nach folgender Methode ermittelt: In einem 400 ml Becher wurden 100 g einer wässrigen Lösung mit 0,5 % WAS hergestellt. Für eine Minute wurde die Lösung bei […] runden […] wurde die […] Minute […]0) und 5 […]. Die Schaumstabilität in % ergibt sich dann über (h1/h0)*100.

[5] = pH of cleaning formulation after addition of terpene ether
[6] = Reinigungsformulierung enthaltend Coco Glucosid, +0,5 %
[7] = Reinigungsformulierung enthaltend Coco Glucosid, +1 %
[8] = Reinigungsformulierung enthaltend Coco Glucosid, +5 %
[9] = Reinigungsformulierung enthaltend Dinatriumlaurylsuccinat (wässrig), +0,5 %
[10] = Reinigungsformulierung enthaltend Dinatriumlaurylsuccinat (wässrig), +1 %
[11] = Reinigungsformulierung enthaltend Dinatriumlaurylsuccinat (wässrig), +5 %
[12] = Reinigungsformulierung enthaltend Dinatriumlaurylsuccinat (wässrig), +0,5 %, nach 24 Stunden
[13] = Reinigungsformulierung enthaltend Dinatriumlaurylsuccinat (wässrig), +1 %, nach 24 Stunden
[14] = Reinigungsformulierung enthaltend Dinatriumlaurylsuccinat (wässrig), +5 %, nach 24 Stunden
[15] = Reinigungsformulierung enthaltend Natriumlaurylethersulfat, Dinatriumcocoamphodiacetat, 0,5 % NaCl, +0,5 %, nach 24 Stunden
[16] = Reinigungsformulierung enthaltend Natriumlaurylethersulfat, Dinatriumcocoamphodiacetat, 0,5 % NaCl, +0,25 %, nach 24 Stunden
[17] = Reinigungsformulierung enthaltend Natriumlaurylethersulfat, Dinatriumcocoamphodiacetat, 0,5 % NaCl, +1 %, nach 24 Stunden
[18] = Reinigungsformulierung enthaltend Natriumlaurylethersulfat, Dinatriumcocoamphodiacetat, 0,5 % NaCl, +2 %, nach 24 Stunden
[19] = Reinigungsformulierung enthaltend Natriumlaurylethersulfat, Dinatriumcocoamphodiacetat, 1 % NaCl, +0,5 %, nach 24 Stunden
[20] = Reinigungsformulierung enthaltend Natriumlaurylethersulfat, Dinatriumcocoamphodiacetat, 1 % NaCl, +0,25 %, nach 24 Stunden
[21] = Reinigungsformulierung enthaltend Natriumlaurylethersulfat, Dinatriumcocoamphodiacetat, 1 % NaCl, +1 %, nach 24 Stunden
[22] = Reinigungsformulierung enthaltend Natriumlaurylethersulfat, Dinatriumcocoamphodiacetat, 1 % NaCl, +2 %, nach 24 Stunden
[23] = Reinigungsformulierung enthaltend Natriumlaurylethersulfat, Dinatriumcocoamphodiacetat, +0,5 %, nach 24 Stunden
[24] = Reinigungsformulierung enthaltend Natriumlaurylethersulfat, Dinatriumcocoamphodiacetat, +0,25 %, nach 24 Stunden
[25] = Reinigungsformulierung enthaltend Natriumlaurylethersulfat, Dinatriumcocoamphodiacetat, +1 %, nach 24 Stunden
[26] = Reinigungsformulierung enthaltend Natriumlaurylethersulfat, Dinatriumcocoamphodiacetat, +2 %, nach 24 Stunden

Compound: CC1(C)C2CCC1(C)C(OCC1COC(=O)O1)C2 (stereo not drawn) [NP 27]
- Aussehen des Schaums nach 1 min. ([1]; +0,5 %): 2
- Aussehen des Schaums nach 5 min. ([1]; +0,5 %): 1
- Blasengröße nach 1 min. ([1]; +0,5 %): 4
- Blasengröße nach 5 min. ([1]; +0,5 %): 5
- Aussehen des Schaums nach 1 min. ([1]; +1 %): 3
- Aussehen des Schaums nach 5 min. ([1]; +1 %): 1
- Blasengröße nach 1 min. ([1]; +1 %): 3
- Blasengröße nach 5 min. ([1]; +1 %): 5
- Aussehen des Schaums nach 1 min. ([1]; +5 %): 3
- Aussehen des Schaums nach 5 min. ([1]; +5 %): 1
- Blasengröße nach 1 min. ([1]; +5 %): 4
- Blasengröße nach 5 min. ([1]; +5 %): 5
- Aussehen nach 24 h [2, 6]: transparent Gel-flüssig
- Aussehen nach 24 h [2, 7]: opaleszent Phasenseparation
- Aussehen nach 24 h [2, 8]: weiß Phasenseparation
- Aussehen nach 24 h [2, 9]: transparent; also recorded: flüssig
- Aussehen nach 24 h [2, 10]: transparent and Gel
- Aussehen nach 24 h [2, 11]: Weiß and Flüssig
- Aussehen nach 24 h ([2]; Reinigungsformulierung enthaltend Natriumlaurylethersulfat, Dinatriumcocoamphodiacetat, 0,5 % NaCl, +0,5 %): transparent Gel
- Aussehen nach 24 h ([2]; Reinigungsformulierung enthaltend Natriumlaurylethersulfat, Dinatriumcocoamphodiacetat, 0,5 % NaCl, +0,25 %): transparent Gel-flüssig
- Aussehen nach 24 h ([2]; Reinigungsformulierung enthaltend Natriumlaurylethersulfat, Dinatriumcocoamphodiacetat, 0,5 % NaCl, +1 %): transparent Gel
- Aussehen nach 24 h ([2]; Reinigungsformulierung enthaltend Natriumlaurylethersulfat, Dinatriumcocoamphodiacetat, 0,5 % NaCl, +2 %): opaleszent flüssig
- Aussehen nach 24 h ([2]; Reinigungsformulierung enthaltend Natriumlaurylethersulfat, Dinatriumcocoamphodiacetat, 1 % NaCl, +0,5 %): transparent Gel
- Aussehen nach 24 h ([2]; Reinigungsformulierung enthaltend Natriumlaurylethersulfat, Dinatriumcocoamphodiacetat, 1 % NaCl, +0,25 %): transparent Gel
- Aussehen nach 24 h ([2]; Reinigungsformulierung enthaltend Natriumlaurylethersulfat, Dinatriumcocoamphodiacetat, 1 % NaCl, +1 %): transparent Gel
- Aussehen nach 24 h ([2]; Reinigungsformulierung enthaltend Natriumlaurylethersulfat, Dinatriumcocoamphodiacetat, 1 % NaCl, +2 %): weiß flüssig
- Aussehen nach 24 h ([2]; Reinigungsformulierung enthaltend Natriumlaurylethersulfat, Dinatriumcocoamphodiacetat, +0,5 %): transparent Gel-flüssig
- Aussehen nach 24 h ([2]; Reinigungsformulierung enthaltend Natriumlaurylethersulfat, Dinatriumcocoamphodiacetat, +0,25 %): transparent flüssig
- Aussehen nach 24 h ([2]; Reinigungsformulierung enthaltend Natriumlaurylethersulfat, Dinatriumcocoamphodiacetat, +1 %): transparent Gel
- Aussehen nach 24 h ([2]; Reinigungsformulierung enthaltend Natriumlaurylethersulfat, Dinatriumcocoamphodiacetat, +2 %): opaleszent flüssig
- BF-Viskosität (2,5 rpm) [3, 6]: 16400 mPas
- BF-Viskosität (5 rpm) [3, 6]: 15800 mPas
- BF-Viskosität (2,5 rpm) [3, 7]: 1000 mPas
- BF-Viskosität (5 rpm) [3, 7]: 900 mPas
- BF-Viskosität (2,5 rpm) [3, 8]: 80 mPas
- BF-Viskosität (5 rpm) [3, 8]: 60 mPas
- BF-Viskosität (2,5 rpm) [3, 12]: 6800 mPas
- BF-Viskosität (5 rpm) [3, 12]: 6800 mPas
- BF-Viskosität (2,5 rpm) [3, 13]: 30400 mPas
- BF-Viskosität (5 rpm) [3, 13]: 27800 mPas
- BF-Viskosität (2,5 rpm) [3, 14]: 60 mPas
- BF-Viskosität (5 rpm) [3, 14]: 40 mPas
- BF-Viskosität (2,5 rpm) [3, 15]: 35200 mPas
- BF-Viskosität (5 rpm) [3, 15]: 31000 mPas
- BF-Viskosität (2,5 rpm) [3, 16]: 19600 mPas
- BF-Viskosität (5 rpm) [3, 16]: 19000 mPas
- BF-Viskosität (2,5 rpm) [3, 17]: 40800 mPas
- BF-Viskosität (5 rpm) [3, 17]: 36800 mPas
- BF-Viskosität (2,5 rpm) [3, 18]: 7400 mPas
- BF-Viskosität (5 rpm) [3, 18]: 7200 mPas
- BF-Viskosität (2,5 rpm) [3, 19]: 46400 mPas
- BF-Viskosität (5 rpm) [3, 19]: 40400 mPas
- BF-Viskosität (2,5 rpm) [3, 20]: 33200 mPas
- BF-Viskosität (5 rpm) [3, 20]: 29000 mPas
- BF-Viskosität (2,5 rpm) [3, 21]: 43200 mPas
- BF-Viskosität (5 rpm) [3, 21]: 38800 mPas
- BF-Viskosität (2,5 rpm) [3, 22]: 4000 mPas
- BF-Viskosität (5 rpm) [3, 22]: 3800 mPas
- BF-Viskosität (2,5 rpm) [3, 23]: 15600 mPas
- BF-Viskosität (5 rpm) [3, 23]: 15000 mPas
- BF-Viskosität (2,5 rpm) [3, 24]: 9200 mPas
- BF-Viskosität (5 rpm) [3, 24]: 8700 mPas
- BF-Viskosität (2,5 rpm) [3, 25]: 27600 mPas
- BF-Viskosität (5 rpm) [3, 25]: 25600 mPas
- BF-Viskosität (2,5 rpm) [3, 26]: 12800 mPas
- BF-Viskosität (5 rpm) [3, 26]: 12400 mPas
- h1 ([4]; 0,5 %): 210 mm
- h0 ([4]; 0,5 %): 240 mm
- Stabilität ([4]; 0,5 %): 88%
- h1 ([4]; 1 %): 180 mm
- h0 ([4]; 1 %): 215 mm
- Stabilität ([4]; 1 %): 84%
- h1 ([4]; 5 %): 175 mm
- h0 ([4]; 5 %): 210 mm
- Stabilität ([4]; 5 %): 83%
- pH [5, 6]: 6
- pH [5, 7]: 6
- pH [5, 8]: 6,1
- pH [5, 9]: 6,3
- pH [5, 10]: 6,35
- pH [5, 11]: 6,4
